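These data come from cells grown in 96-well plates and exposed to compound for 48 hours at five concentrations. GI50: concentration for 50% inhibition of growth. TGI: total growth inhibition.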
Legend:
Experiment in all cases: NCI anticancer screen, dose series, 48 h
HCC-2998 colon = test system: HCC-2998 colon
HT29 colon = test system: HT29 colon
IGROV1 ovarian = test system: IGROV1 ovarian
M14 melanoma = test system: M14 melanoma
NCI-H226 lung = test system: NCI-H226 lung
NCI/ADR-RES ovarian = test system: NCI/ADR-RES ovarian
PC-3 prostate = test system: PC-3 prostate
RXF 393 renal = test system: RXF 393 renal
SK-OV-3 ovarian = test system: SK-OV-3 ovarian
UACC-257 melanoma = test system: UACC-257 melanoma

Row | Structure (SMILES) | GI50 (HCC-2998 colon) | TGI (HCC-2998 colon) | GI50 (HT29 colon) | TGI (HT29 colon) | GI50 (IGROV1 ovarian) | TGI (IGROV1 ovarian) | TGI (M14 melanoma) | GI50 (NCI-H226 lung) | TGI (NCI-H226 lung) | GI50 (NCI/ADR-RES ovarian) | TGI (NCI/ADR-RES ovarian) | GI50 (PC-3 prostate) | TGI (PC-3 prostate) | GI50 (RXF 393 renal) | TGI (RXF 393 renal) | GI50 (SK-OV-3 ovarian) | TGI (SK-OV-3 ovarian) | GI50 (UACC-257 melanoma) | TGI (UACC-257 melanoma) | GI50 (M14 melanoma)
1 | CN1CC[C@]2(c3cccc(O)c3)CC(=O)/C(=C/c3ccccc3)[C@H]1C2 | 3.11 µM | 9.99 µM | 3.59 µM | 12.4 µM | 3.38 µM | 12.6 µM | 9.46 µM | 9.03 µM | 28.6 µM | 2.42 µM | 7.35 µM | 3.22 µM | 12.9 µM | 2500 nM | 8.03 µM | 2.81 µM | 8.73 µM | 2600 nM | 9.72 µM | 
2 | CCN(CC)CCOc1ccc(/C=C2\C[C@H]3[C@H]4CC=C5C[C@@H](O)CC[C@]5(C)[C@H]4CC[C@]3(C)[C@H]2O)cc1OC | 11.6 µM | 20.6 µM | 10.9 µM | > 50 µM | 1.23 µM | > 50 µM | 16.8 µM | 7.71 µM | 16 µM | 9.98 µM | 22 µM |  |  | 13400 nM | 39.3 µM |  |  | 8420 nM | 18.1 µM | 6.12 µM
3 | O=C(NNc1ccc(F)cc1)C1CCC(CNS(=O)(=O)c2ccc(Cl)c(Cl)c2)CC1 (stereo not given) |  |  |  |  | 6.79 µM | > 50 µM | > 50 µM | 15.6 µM | > 50 µM | 8.79 µM | 31.5 µM | 6.3 µM | 39.5 µM |  |  | 28.9 µM | > 50 µM | 7910 nM | 28.5 µM | 7.49 µM
4 | COc1cc2nc(-c3ccc(Cl)cc3)cc(OCCCN3CCCC3)c2cc1OC | 1.86 µM | 6.01 µM | 0.454 µM | 4.17 µM | 0.881 µM | 11.8 µM | 1.51 µM | 0.898 µM | 3.21 µM | 0.683 µM | 11 µM | 1.76 µM | 10.3 µM | 1170 nM | 3.78 µM | 2.42 µM | 15.3 µM | 1960 nM | 4.87 µM | 0.402 µM
5 | CN(C)CCC=C1c2ccccc2C(C)(C)c2ccccc21 | 4.25 µM | 15 µM | 3.06 µM | 13.6 µM | 15.9 µM | 31.7 µM | 9.78 µM |  |  | 17 µM | 34.1 µM | 10.4 µM | 24.3 µM |  |  | 15.5 µM | 28.8 µM | 2420 nM | 6.34 µM | 2.94 µM
6 | Clc1cc2c(nn1)Nc1ccccc1S2 | > 100 µM | > 100 µM | > 100 µM | > 100 µM | > 100 µM | > 100 µM | > 100 µM | > 100 µM | > 100 µM | > 100 µM | > 100 µM | > 100 µM | > 100 µM | > 100000 nM | > 100 µM | > 100 µM | > 100 µM | > 100000 nM | > 100 µM | > 100 µM
